Test results from paper PMC3229521, “Engineering Genetically Encoded Nanosensors for Real-Time In Vivo Measurements of Citrate Concentrations” (PLoS ONE, 2011).
Counter-ions that a name gives are not always drawn.

Key:
Experiment in all cases: Citrate titration of purified FRET nanosensors in a fluorescence plate reader (excitation 433 nm, Venus/CFP emission ratio 530/488 nm) in 20 mM MOPS, 20 mM NaCl, pH 7, fitted to a single site binding curve.
Conditions in all cases: n = 2
[1] = target: T1, CIT32μ (Klebsiella pneumoniae, UniProt P52687, K135A)
T1 construct: gene citA; CitA residues 6-130 inserted between CFP and Venus (pGW1, pRSET-based), His-tag purified
T1 sequence (P52687 49-173 K135A): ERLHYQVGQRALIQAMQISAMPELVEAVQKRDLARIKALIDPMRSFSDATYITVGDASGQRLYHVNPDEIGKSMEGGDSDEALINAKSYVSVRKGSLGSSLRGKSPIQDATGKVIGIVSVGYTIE
Experimental: (§1) Next, we thoroughly tested the newly created nanosensor CFP-CitA6-130-Venus in vitro. We determined the binding properties by mixing the sensor with 0.5 to 1000 µM citrate. The obtained ratios were fitted to a single site binding curve as described in the methods section. We determined the KD, the ligand concentration at half-maximal saturation, to be 8 µM, which is very close to the value determined by Gerharz et al (2003) using isothermal titration calorimetry to characterize the purified protein [25]. The reproducibility between different batches of proteins extraction was excellent, with ratios in general not differing by more than 5%. A crucial feature for in vivo application is specificity. We thus exposed the nanosensor to a variety of structurally related organic acids including isocitrate, aconitate, α-ketoglutarate, succinate and pyruvate in presence or absence of citrate. […] In the case of isocitrate, we observed an effect only at concentrations above 1 mM (Figure 2 B) in absence of citrate, which by far exceeds the concentration typically observed by metabolomics in microbes. Also, the apparent affinity for citrate was not modified in the presence of isocitrate or aconitate (data not shown), which excludes competitive binding. After confirming the high specificity of the sensor we tested pH stability, which is crucial when aiming to study certain intracellular compartments (Figure S2 A). […] Therefore, the new nanosensor should be functional in most compartments, however it is not suitable for highly acidic compartments such as endosomes or vacuoles. We also tested the effect of high salt concentrations as typically observed in cells. […] Thus, as has been previously observed when comparing nanosensors in vitro and in vivo [13], [23], we can expect the observed fluorescence intensity ratio in vivo to be lower than under assay conditions. The KD and the dynamic range, however, were not altered, and thus relative changes in citrate concentrations can still be monitored in vivo.
(§2) The natural receptor CitA is highly sensitive and detects low concentrations of citrate in the periplasmic environment and thus has a very high affinity for its substrate. For application as an intracellular sensor a saturation concentration of approximately 100 µM appeared too low given the estimates of intracellular concentrations of citrate by metabolomics approaches in the mid micromolar to low millimolar range [3]. We therefore engineered the affinity of the nanosensor for in vivo applications. Gerharz et al systematically investigated residues of the CitA sensor domain involved in citrate binding. Replacement of positively charged amino acids with alanine led to decreased affinity. We chose five of the reported point mutations and introduced them into the sensor CitA6-130. We determined binding constants and total FRET ratios from two independent extractions (Table 1). The binding constants were qualitatively in good agreement with the observations of Gerharz et al., though in some cases we observed a much larger decrease of affinity. This might be due to the different measurement techniques, a different behaviour of the truncated and sandwiched protein compared to the isolated full-length protein, or to the minor differences we found in the sequence compared to the published Klebsiella CitA gene (sequence of the final sensor can be found in Document S1). […] Decreasing the affinity for the designated substrate bears the risk of also reducing specificity. We therefore tested all mutated sensors for binding of isocitrate and aconitate, the most closely related compounds. […] Also, pH and salt sensitivity were similar to the original sensor (data not shown).
(§3) All in vitro assays were performed in a TECAN Infinite 200 plate reader (TECAN, Austria) in 96 well format (modified from). Proteins, reagents and ligands were dissolved in assay buffer (20 mM Mops, 20 mM NaCl, pH 7 unless specified otherwise). […]

[2] = target: T2, CIT8μ (CFP-CitA6-130-Venus) (Klebsiella pneumoniae, UniProt P52687)
T2 construct: gene citA; CitA residues 6-130 inserted between CFP and Venus (pGW1, pRSET-based), His-tag purified
T2 sequence (P52687 50-174): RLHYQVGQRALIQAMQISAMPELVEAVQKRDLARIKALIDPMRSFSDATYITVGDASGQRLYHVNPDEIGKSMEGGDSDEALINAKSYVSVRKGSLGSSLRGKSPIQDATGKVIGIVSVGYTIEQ
Experimental: as §1, §2, §3

[3] = target: T3, CIT96μ (Klebsiella pneumoniae, UniProt P52687, K120A)
T3 construct: gene citA; CitA residues 6-130 inserted between CFP and Venus (pGW1, pRSET-based), His-tag purified
T3 sequence (P52687 49-173 K120A): T1 sequence (P52687 49-173 K135A)
Experimental: as §1, §2, §3

[4] = target: T4, CIT50μ (Klebsiella pneumoniae, UniProt P52687, R92A)
T4 construct: gene citA; CitA residues 6-130 inserted between CFP and Venus (pGW1, pRSET-based), His-tag purified
T4 sequence (P52687 49-173 R92A): T1 sequence (P52687 49-173 K135A)
Experimental: as §1, §2, §3

[5] = target: T5, CIT0.5m (Klebsiella pneumoniae, UniProt P52687, K120A/R92A)
T5 construct: gene citA; CitA residues 6-130 inserted between CFP and Venus (pGW1, pRSET-based), His-tag purified
T5 sequence (P52687 49-173 R92A/K120A): T1 sequence (P52687 49-173 K135A)
Experimental: as §1, §2, §3

[6] = target: T6, CIT1.8m (Klebsiella pneumoniae, UniProt P52687, R150A)
T6 construct: gene citA; CitA residues 6-130 inserted between CFP and Venus (pGW1, pRSET-based), His-tag purified
T6 sequence (P52687 49-173 R150A): T1 sequence (P52687 49-173 K135A)
Experimental: as §1, §2, §3

**Q.** What does the source list for `O=C(O)CC(O)(CC(=O)O)C(=O)O` [citrate, citrate (citric acid)]?
**A.** Kd [1]: 32 µM; Kd [2]: 8 µM; Kd [3]: 96 µM; Kd [4]: 50 µM; Kd [5]: 470 µM; Kd [6]: 1760 µM
